Test results as given in patent US12264158B2, “Protein kinase MKK4 inhibitors for promoting liver regeneration or reducing or preventing hepatocyte death” (HEPAREGENIX GMBH, priority 2018, dated 2025).

What was measured:
[1] = target: T1, JNK1 (Homo sapiens, UniProt P45983); assay: KINOMEscan competition binding assay, selectivity against off-target JNK1; conditions: concentration of 100 nM
T1 construct: M1/Q384; host or cells: HEK-293
Method in brief: (§1)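 DNA-tagged kinases expressed in HEK-293 cells compete between test compound and immobilized ligand on blocked beads. Bound kinase is eluted and quantified by qPCR of the DNA tag. Compounds were tested at the indicated final concentrations, prepared from 10 mM stocks.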

[2] = target: T2, MKK4 (Homo sapiens, UniProt P45985); assay: KINOMEscan competition binding assay, MKK4 potency; conditions: concentration of 100 nM
T2 construct: S84/D399; host or cells: HEK-293
T2 sequence (P45985 84-399): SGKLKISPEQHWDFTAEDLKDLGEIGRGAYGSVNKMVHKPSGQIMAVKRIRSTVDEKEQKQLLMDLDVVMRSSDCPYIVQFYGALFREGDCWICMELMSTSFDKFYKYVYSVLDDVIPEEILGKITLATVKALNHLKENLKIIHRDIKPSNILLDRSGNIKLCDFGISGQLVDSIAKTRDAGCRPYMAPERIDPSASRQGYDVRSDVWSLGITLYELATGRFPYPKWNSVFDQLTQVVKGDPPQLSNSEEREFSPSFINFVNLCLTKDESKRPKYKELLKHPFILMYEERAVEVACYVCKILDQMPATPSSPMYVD
Method in brief: as §1

[3] = target: T3, MKK4-MEKK2 mix (Homo sapiens, UniProt P45985); assay: Radiometric protein kinase assay, MEKK2 dependent MKK4 activation (cascade); format: biochemical; conditions: substrate JNK1 KRKR, ATP 0.2 μM, read-out: Cascade, potency derived from IC50-values
T3 construct: MEKK2, recombinant, active: ProQinase product #0583-0000-1
T3 sequence (P45985 2-399): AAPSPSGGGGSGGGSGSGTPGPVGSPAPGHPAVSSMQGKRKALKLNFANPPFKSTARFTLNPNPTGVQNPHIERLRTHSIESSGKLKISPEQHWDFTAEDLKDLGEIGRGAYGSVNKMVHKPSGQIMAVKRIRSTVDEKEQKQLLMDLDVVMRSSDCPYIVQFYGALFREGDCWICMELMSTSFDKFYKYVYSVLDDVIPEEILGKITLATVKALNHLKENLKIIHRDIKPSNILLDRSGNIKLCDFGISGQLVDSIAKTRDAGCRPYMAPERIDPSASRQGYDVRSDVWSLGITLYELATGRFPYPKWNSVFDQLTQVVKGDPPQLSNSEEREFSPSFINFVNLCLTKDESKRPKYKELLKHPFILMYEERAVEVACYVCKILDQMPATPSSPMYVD
Protocol: The activation step is done in 50 mM HEPES pH 7.5, 50 mM NaCl, 3.8 mM MgCl2, 2.5 mM DTT, 10% (v/v) glycerol. Final DMSO concentration is 1%. The activation mixture is pipetted in the following order • 2.5 μl compound in 4% DMSO • 2.5 μl ATP/MgCl2 mix • 5 μl premixed kinase solution MKK4:MEKK2 10:1 (w/w)
Protein concentrations in the activation mix are 1 μM MKK4 and 50 nM MEKK2.
(§2) A radiometric protein kinase assay was used for measuring the kinase activity of the respective protein kinases. All kinase assays were performed in 96-well polypropylene plates. After the reactions were stopped, the assay mixtures were transferred to 96-well MSFC filter-plates (Millipore). The reaction mix was passed through the filter membrane by aspiration, the membrane was washed 3 times with 150 mM H3PO4, once with ethanol, dried and liquid scintillation cocktail was added. Radioactivity was determined by counting of the samples in a Microbeta multiwell scintillation counter (Wallac).

[4] = target: BRaf (Homo sapiens, UniProt P15056); assay: KINOMEscan competition binding assay, selectivity against off-target BRaf; conditions: concentration of 100 nM
Method in brief: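 Competition binding: test compound competes with an immobilized ligand for DNA-tagged BRaf, and kinase captured on the ligand is quantified by qPCR of the DNA tag. Compounds from 10 mM stocks were tested at the indicated final concentrations.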

[5] = target: T4, MKK4 active (Homo sapiens, UniProt P45985); assay: Radiometric protein kinase assay, MKK4 active; format: biochemical; conditions: substrate JNK1 KRKR, ATP 0.2 μM, read-out: MKK4, potency derived from IC50-values
T4 construct: purchased ProQinase #0948-0000-1
T4 sequence (P45985 1-399): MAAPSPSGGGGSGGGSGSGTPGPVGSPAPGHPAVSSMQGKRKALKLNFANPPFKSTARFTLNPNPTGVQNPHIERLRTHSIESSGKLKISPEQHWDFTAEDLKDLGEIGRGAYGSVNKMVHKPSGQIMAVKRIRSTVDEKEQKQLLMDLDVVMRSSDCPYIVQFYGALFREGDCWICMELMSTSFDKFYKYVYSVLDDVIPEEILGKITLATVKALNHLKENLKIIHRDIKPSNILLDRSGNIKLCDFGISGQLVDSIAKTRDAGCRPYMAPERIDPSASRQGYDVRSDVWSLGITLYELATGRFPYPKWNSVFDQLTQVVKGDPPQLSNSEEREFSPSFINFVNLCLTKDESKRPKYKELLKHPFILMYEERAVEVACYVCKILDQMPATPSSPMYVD
Protocol: as §2

[6] = target: T5, MEKK2 (Homo sapiens, UniProt Q9Y2U5); assay: Radiometric protein kinase assay, MEKK2; format: biochemical; conditions: substrate Casein, ATP 0.2 μM; read-out: MEKK2, potency derived from IC50-values
T5 construct: purchased ProQinase #0583-0000-1
T5 sequence (Q9Y2U5 1-619): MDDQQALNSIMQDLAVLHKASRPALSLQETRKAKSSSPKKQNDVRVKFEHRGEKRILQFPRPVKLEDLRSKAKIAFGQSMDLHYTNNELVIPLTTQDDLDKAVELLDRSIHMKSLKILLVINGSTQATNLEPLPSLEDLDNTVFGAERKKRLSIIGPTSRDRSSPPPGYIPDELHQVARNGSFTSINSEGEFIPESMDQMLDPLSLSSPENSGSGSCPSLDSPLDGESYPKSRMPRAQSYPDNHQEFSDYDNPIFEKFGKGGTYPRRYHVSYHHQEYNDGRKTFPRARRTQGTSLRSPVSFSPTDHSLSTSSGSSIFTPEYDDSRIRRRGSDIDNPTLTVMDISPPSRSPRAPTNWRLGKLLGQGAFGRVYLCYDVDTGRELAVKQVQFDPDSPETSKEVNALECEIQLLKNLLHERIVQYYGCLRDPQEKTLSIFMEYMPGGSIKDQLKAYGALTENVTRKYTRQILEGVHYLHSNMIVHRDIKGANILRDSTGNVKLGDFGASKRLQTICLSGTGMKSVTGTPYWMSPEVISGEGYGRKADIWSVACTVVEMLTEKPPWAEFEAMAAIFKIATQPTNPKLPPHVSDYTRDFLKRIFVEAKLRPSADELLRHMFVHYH
Protocol: as §2

[7] = target: T6, MKK7 (Homo sapiens, UniProt O14733); assay: KINOMEscan competition binding assay, selectivity against off-target MKK7; conditions: concentration of 100 nM
T6 construct: M1/R419; host or cells: HEK-293
T6 sequence (O14733 1-419): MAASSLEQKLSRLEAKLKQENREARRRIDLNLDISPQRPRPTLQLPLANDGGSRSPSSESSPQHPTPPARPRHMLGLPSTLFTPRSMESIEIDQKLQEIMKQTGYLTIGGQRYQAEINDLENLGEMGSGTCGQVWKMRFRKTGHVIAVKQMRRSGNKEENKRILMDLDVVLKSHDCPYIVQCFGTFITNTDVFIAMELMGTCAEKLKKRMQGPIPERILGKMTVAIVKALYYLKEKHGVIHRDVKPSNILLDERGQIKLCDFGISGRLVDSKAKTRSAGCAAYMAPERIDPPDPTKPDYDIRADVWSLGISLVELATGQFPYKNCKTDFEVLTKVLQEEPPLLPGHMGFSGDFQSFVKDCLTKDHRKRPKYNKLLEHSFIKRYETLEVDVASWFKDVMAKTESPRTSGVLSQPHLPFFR
Method in brief: as §1

T1 sequence (P45983 1-384 isoform P45983-2): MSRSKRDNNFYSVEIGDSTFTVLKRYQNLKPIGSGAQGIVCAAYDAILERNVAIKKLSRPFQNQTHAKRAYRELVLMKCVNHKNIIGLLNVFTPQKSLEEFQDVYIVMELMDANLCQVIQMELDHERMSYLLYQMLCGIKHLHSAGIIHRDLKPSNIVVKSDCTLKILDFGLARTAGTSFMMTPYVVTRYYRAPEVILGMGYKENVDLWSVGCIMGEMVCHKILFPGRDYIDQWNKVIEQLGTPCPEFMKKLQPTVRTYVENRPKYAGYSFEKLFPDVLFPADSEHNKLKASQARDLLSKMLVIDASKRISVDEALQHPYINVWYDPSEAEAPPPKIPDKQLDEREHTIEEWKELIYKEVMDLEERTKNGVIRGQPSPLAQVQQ
BRaf, sequence (P15056 whole entry): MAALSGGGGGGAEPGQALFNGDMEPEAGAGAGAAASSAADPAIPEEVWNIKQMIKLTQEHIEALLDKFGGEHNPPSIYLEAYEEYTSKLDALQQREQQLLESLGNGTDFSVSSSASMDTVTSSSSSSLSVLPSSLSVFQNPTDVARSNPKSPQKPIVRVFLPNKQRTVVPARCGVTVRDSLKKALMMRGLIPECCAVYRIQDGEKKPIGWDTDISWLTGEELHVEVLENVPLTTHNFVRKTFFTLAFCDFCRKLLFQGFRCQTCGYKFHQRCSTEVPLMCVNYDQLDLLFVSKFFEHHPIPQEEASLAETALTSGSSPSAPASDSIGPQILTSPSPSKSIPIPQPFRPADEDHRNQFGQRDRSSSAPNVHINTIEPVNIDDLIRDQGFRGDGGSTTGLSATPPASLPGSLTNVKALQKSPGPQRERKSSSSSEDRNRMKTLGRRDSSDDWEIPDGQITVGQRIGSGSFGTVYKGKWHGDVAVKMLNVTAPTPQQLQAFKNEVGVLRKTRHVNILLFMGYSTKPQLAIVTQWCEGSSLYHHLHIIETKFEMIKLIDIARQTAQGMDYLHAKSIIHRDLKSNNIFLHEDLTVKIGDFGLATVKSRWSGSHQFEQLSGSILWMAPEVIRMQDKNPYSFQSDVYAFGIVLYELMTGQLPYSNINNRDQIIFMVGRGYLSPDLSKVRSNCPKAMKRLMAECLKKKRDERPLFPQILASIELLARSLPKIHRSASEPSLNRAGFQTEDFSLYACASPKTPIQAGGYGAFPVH

Row | SMILES | Selectivity vs. JNK1, ratio PoC(JNK1)/PoC(MKK4) [1] | MKK4, residual percent of control binding (PoC) [2] | IC50 [3] | Selectivity vs. BRaf, ratio PoC(BRaf)/PoC(MKK4) [4] | IC50 [5] | IC50 [6] | Selectivity vs. MKK7, ratio PoC(MKK7)/PoC(MKK4) [7]
1 | CCCS(=O)(=O)Nc1ccc(F)c(C(=O)c2n[nH]c3ncc(-c4ccccc4C)cc23)c1F [Example 13, N-(2,4-difluoro-3-(5-o-tolyl-1H-pyrazolo[3,4-b]pyridine-3-carbonyl)-phenyl)propane-1-sulfon-amide] | ++ (30 > PoC(JNK1)/PoC(MKK4) ≥ 10) | ++ (1 ≤ PoC < 10) | 1 to 10 µM | + (10 > PoC(BRaf)/PoC(MKK4) ≥ 3) | < 0.5 µM | 1 to 10 µM | ++ (30 > PoC(MKK7)/PoC(MKK4) ≥ 10)
2 | CCCS(=O)(=O)Nc1ccc(F)c(C(=O)c2n[nH]c3ncc(-c4ccccc4)cc23)c1F [Example 2, N-(2,4-difluoro-3-(5-phenyl-1H-pyrazolo[3,4-b]pyridine-3-carbonyl)phenyl)propane-1-sulfonamide] | ++ (30 > PoC(JNK1)/PoC(MKK4) ≥ 10) | ++ (1 ≤ PoC < 10) | 1 to 10 µM | ++ (30 > PoC(BRaf)/PoC(MKK4) ≥ 10) | < 0.5 µM | > 10 µM | +++ (PoC(MKK7)/PoC(MKK4) ≥ 30)
3 | CCCS(=O)(=O)Nc1ccc(F)c(C(=O)c2n[nH]c3ncc(-c4ccccc4F)cc23)c1F [Example 31, N-(2,4-difluoro-3-(5-(2-fluorophenyl)-1H-pyrazo-lo[3,4-b]pyridine-3-carbonyl)phenyl)propane-1-sulfon-amide] | +++ (PoC(JNK1)/PoC(MKK4) ≥ 30) | ++ (1 ≤ PoC < 10) | 1 to 10 µM | ++ (30 > PoC(BRaf)/PoC(MKK4) ≥ 10) | < 0.5 µM | 1 to 10 µM | +++ (PoC(MKK7)/PoC(MKK4) ≥ 30)
4 | CCCS(=O)(=O)Nc1ccc(F)c(C(=O)c2n[nH]c3ncc(-c4ccc(S(N)(=O)=O)cc4F)cc23)c1F [Example 51m, 4-(3-(2,6-difluoro-3-(propylsulfonamido)benzoyl)-1H-pyrazolo[3,4-b]pyridin-5-yl)-3-fluorobenzenesulfonamide] |  |  | 1 to 10 µM |  | < 0.5 µM | 1 to 10 µM | 
5 | CCCS(=O)(=O)Nc1c(F)ccc(C(=O)c2n[nH]c3ncc(-c4ccc(S(N)(=O)=O)cc4)cc23)c1F [Example 67, 4-(3-(2,4-difluoro-3-(propylsulfon-amido)benzoyl)-1H-pyrazolo[3,4-b]pyridin-5-yl)benzenesulfonamide] |  |  | < 0.5 µM |  | < 0.5 µM | < 0.5 µM | 
